{
  "source": "patent US20180200223A1",
  "about": "“APPLICATION OF NARINGENIN AND NARINGIN IN TUMOR RADIOTHERAPY” (INSTITUTE OF BIOPHYSICS CHINESE ACADEMY OF SCIENCES, priority 2015, published 2018)",
  "key": {"LLC lung tumor": {"tested_on": "LLC lung tumor", "experiment": "LLC lung tumor bearing mice with lung irradiation", "assay_type": "in vivo, C57B6/L mice", "source_text": "(1) LLC murine lung cancer cell line was used to intravenously inoculate the C57B6/L mice to form lung metastatic tumors. About 24 days after 5×10^5 LLC cells were inoculated, nodules in the lung would develop. (2) The mice were divided into 4 groups, and each group contains 10 mice. The grouping methods are as followed: 1) Normal control group (Normal); 2) LLC tumor-bearing mice without irradiation group (LLC); 3) LLC tumor-bearing mice receiving lung irradiation without naringenin administration group (LLC+IR); 4) LLC tumor-bearing mice receiving lung irradiation with naringenin (Nar) administration group (LLC+IR+Nar); Set the day of inoculation as day 0. (6) 100 mg/kg naringenin (Nar) (suspended in 1% CMC-Na) was administered orally to each of the mice in LLC+IR+Nar group at day 12 after inoculation (namely 3 days before lung irradiation); (7) The mice received γ-ray irradiation with a dose of 12 Gy per mouse per time at day 14 after inoculation; (8) Continue to orally administrate 100 mg/kg naringenin (Nar) (suspended in 1% CMC-Na) to each of the mice in LLC+IR+Nar group at day 15 day after inoculation (namely 1 day after lung irradiation); (9) At day 21 after inoculation, 5 animals in each group were randomly selected for sample collection. After dissection, the blood and lung tissues were collected, and the lungs were weighed. Then the number of tumor nodules in the lungs were counted without destroying the complete structure of lung tissues. (10) At day 37 after inoculation, the remaining animals in each group were sacrificed and dissected. The blood and lung tissues were collected, and the lungs were weighed. Then the number of tumor nodules in the lungs were counted without destroying the complete structure of lung tissues. Serum was separated and assayed for inflammatory cytokines such as IL-6, IL-113, IFN-γ, etc. The lung tissues were used for biopsy and the observation of lung injury and inflammatory cells infiltration. […]"}, "[1]": {"tested_on": "4T1 breast tumor with lung metastasis", "experiment": "Survival of mice bearing 4T1 breast tumor with lung metastasis after radiotherapy", "assay_type": "in vivo, Balb/c mice", "procedure": "(1) Resuscitation and culture of 4T1 cells: Cell culture hood need to be sterilized by UV for 30 min before resuscitating the 4T1 cells. Equilibrate the RPMI 1640 culture medium (containing 10% fetal bovine serum) to room temperature for further application. The cryovial containing tumor cells are taken from liquid nitrogen storage and immediately put into a 37° C. water bath, shaking quickly until the cells are completely dissolved. Transfer the cells into a cell culture flask with 10-15 ml medium to suspend the sedimentary cells. After adjusting the concentration of the cells, culture the cells in an incubator with a saturated humidified atmosphere containing 5% (v/v) CO2 at 37° C. Replace fresh medium every day during. Digest the cells by 0.25% trypsin when the convergence of the cells reaches 90%, and then subculture the cells at a ratio of 1:3. On the day of experiment, we collect the cells by digesting the cells with 0.25% trypsin, then neutralize the trypsin with RPMI 1640 with 10% fetal bovine serum. Centrifuge the cells at 800 rpm, and then resuspend the cells in sterile PBS. After counting the density of cells, adjust the cells to 1×10^5/ml for tumor cells inoculation. (2) 4T1 cells are mixed well before inoculation. Pipet 0.3 ml of cells by a 1 ml sterile syringe, and inject 0.1 ml of cells per mouse (namely 1×10^4 4 T1 cells per mouse). (1) 4T1 murine breast tumor cell line was intravenously injected to form lung metastatic tumors in Balb/c mice. Lung metastatic nodules would develop about 10-15 days after 1×10^4 4 T1 cells were inoculated. (2) Set the day of inoculation as day 0, at day 12 after inoculation, different doses of naringenin (Nar), namely 50, 100 and 200 mg/kg (suspended in 1% CMC-Na), were administered orally. The mice received γ-ray irradiation (8 Gy×2 f) at day 14 and day 15 after inoculation. […] The administration of either naringenin or dexamethasone plus cefixime continued until the mice started to die, and the survivals were observed and recorded. […]"}, "[2]": {"tested_on": "inflammatory cytokine IL-1β", "experiment": "DNA fragment-induced IL-1β release from primary peritoneal macrophages (ELISA)", "assay_type": "cell-based, mouse", "conditions": "100 μM pretreatment 2 h, DNA fragments 100 ng/mL 24 h, supernatant ELISA", "procedure": "4% Brewer thioglycollate medium (1.5 ml/mouse) was intraperitoneally injected. Four days later, washing the abdominal cavity of these mice with serum-free medium (DMEM) (10 ml/mouse). The lavage fluids were collected and centrifuged at 1300 rpm for 5 minutes. The cell pellet was resuspended and seeded into a 24-well plate at the concentration of 2×10^6 cells/well. Two hours later, the non-adherent cells were carefully removed and the remaining adherent cells are primary peritoneal macrophages. Identification: Macrophage surface marker F4/80 was detected by flow cytometry using PE-labelled anti-F4/80 antibody (ebioscience). […] Sample treatment: The macrophages were pretreated with 100 μM naringenin (Nar) for 2 h, and then were stimulated with DNA fragments (100 ng/mL) for 24h. The supernatants were collected and the concentration of inflammatory cytokine IL-1β (pg/mL) in the supernatant was measured by ELISA."}, "[3]": {"experiment": "Total antioxidant capacity (FRAP method)", "conditions": "27 μM, absorbance 593 nm", "procedure": "The total antioxidant capacity of several flavonoids was detected by the total antioxidant capacity test kit (FRAP method). The principle of the FRAP method is that the antioxidant can reduce ferric-tripyridyltriazine (Fe^3+-TPTZ) to produce a blue Fe^2+-TPTZ under an acidic condition. Measuring the blue Fe^2+-TPTZ at a wavelength of 593 nm to access the antioxidant capacity of the sample. Since the reaction is carried out under an acidic condition, some of the endogenous interference factors can be excluded. (1) Prepare proper amount of FRAP working solution according to the samples numbers referring to the following table. The FRAP working solution was incubated at 37° C. and used no longer than 1-2 hours. Prepare 10 species of flavonoids: quercetin (Que), daidzein (Dai), kaempferol (Kae), apigenin (Api), naringenin (Nar), genistein (Gen), hesperidin (Her), luteolin (Lut), chrysin (Chr) and nobiletin (Nob). Make the final concentration of each flavonoid to 27 μM. Dissolve 27.8 mg of FeSO4.7H2O provided by this kit and dilute to 1 ml to make the concentration to 100 mM. Take an appropriate amount of FeSO4 solution and dilute it to 0.15, 0.3, 0.6, 1.2 and 1.5 mM, respectively. Distilled water or sample preparation solution was used for the preparation of the standards. […] (3) Incubate the plate at 37° C. for 3-5 min, and then determine the absorbance at 593 nm. […]"}, "[4]": {"tested_on": "4T1 breast tumor with lung metastasis", "experiment": "4T1 breast tumor lung metastasis mice with lung irradiation: lung injury, nodules, cytokines", "assay_type": "in vivo, Balb/C mice", "procedure": "(1) Resuscitation and culture of 4T1 cells: Cell culture hood need to be sterilized by UV for 30 min before resuscitating the 4T1 cells. Equilibrate the RPMI 1640 culture medium (containing 10% fetal bovine serum) to room temperature for further application. The cryovial containing tumor cells are taken from liquid nitrogen storage and immediately put into a 37° C. water bath, shaking quickly until the cells are completely dissolved. Transfer the cells into a cell culture flask with 10-15 ml medium to suspend the sedimentary cells. After adjusting the concentration of the cells, culture the cells in an incubator with a saturated humidified atmosphere containing 5% (v/v) CO2 at 37° C. Replace fresh medium every day during. Digest the cells by 0.25% trypsin when the convergence of the cells reaches 90%, and then subculture the cells at a ratio of 1:3. On the day of experiment, we collect the cells by digesting the cells with 0.25% trypsin, then neutralize the trypsin with RPMI 1640 with 10% fetal bovine serum. Centrifuge the cells at 800 rpm, and then resuspend the cells in sterile PBS. After counting the density of cells, adjust the cells to 1×10^5/ml for tumor cells inoculation. (2) 4T1 cells are mixed well before inoculation. Pipet 0.3 ml of cells by a 1 ml sterile syringe, and inject 0.1 ml of cells per mouse (namely 1×10^4 4 T1 cells per mouse). (1) 4T1 murine breast tumor cell line was used to inoculate the tail vein of Balb/C mice to form lung metastatic tumors. 1×10^4 4 T1 cells were intravenously injected into the tail vein per mouse, and 10-15 days later nodules would develop in lung. (2) Set the day of inoculation as day 0. 200 mg/kg naringenin (Nar) (suspended in 1% CMC-Na) was administered orally to the mice at day 12 day after inoculation, namely 3 days before irradiation on the lungs. The mice received a 12 Gy of γ-ray irradiation once at day 14 after inoculation and keep naringenin administration. A part of the mice in each group were sacrificed at day 28 after inoculation and the blood, lung tissues were collected while the lungs were weighed. The tumor nodules in the lungs were observed under the condition of without destroying the integrity of lung tissues. Serum were separated and assayed for cytokines such as IL-6, IL-113, IFN-γ, etc. The lung tissues collected at day 28 after inoculation were used for biopsy and the observation of lung injury as well as inflammatory cells infiltration. The rest animals were used for survival observation. The mice in this experiment are separated into 4 groups as follows: • 1) Normal control group (Normal) • 2) 4T1 tumor-bearing mice without irradiation group (4T1) • 3) 4T1 tumor-bearing mice receiving lung irradiation without naringenin administration group (4T1+IR) • 4) 4T1 tumor-bearing mice receiving lung irradiation with naringenin administration group (4T1+IR+Nar) 3 groups of mice were inoculated with 4T1 tumor cells. Each group contains 12 mice with half male and half female which were fed in separate cages, and each cage contains 6 mice."}, "[5]": {"conditions": "200 mg/kg oral, 12 Gy γ-ray, compared to 4T1+IR group"}},
  "data": [
    {"smiles": "O=C1C[C@@H](c2ccc(O)cc2)Oc2cc(O)cc(O)c21", "note": "[naringenin]", "values": [
      {"measurement": "number of tumor nodules in lungs", "setting": "LLC lung tumor; 100 mg/kg oral, 12 Gy γ-ray at day 14, compared to LLC and LLC+IR group", "value": "significantly decreased"},
      {"measurement": "lung injury (pathological analysis)", "setting": "LLC lung tumor; 100 mg/kg oral, 12 Gy γ-ray, LLC+IR+Nar vs LLC+IR", "value": "significantly alleviated"},
      {"measurement": "survival of mice bearing LLC lung tumor after radiotherapy", "setting": "LLC lung tumor; FIG. 5 legend", "value": "prolongs the survival"},
      {"measurement": "survival of tumor-bearing mice compared with positive drugs (DXM+CXL)", "setting": "[1]; 100 mg/kg oral vs dexamethasone 0.25 mg/kg plus cefixime 200 mg/kg", "value": "improvement in the survival"},
      {"measurement": "sensitizing/synergizing effect combined with radiotherapy (survival)", "setting": "[1]; 100 mg/kg oral, compared among the 3 doses", "value": "highest sensitizing/synergizing effect"},
      {"measurement": "survival of tumor-bearing mice", "setting": "[1]; 50, 100 and 200 mg/kg oral, γ-ray 8 Gy×2 f, compared with 4T1+IR group", "value": "significantly prolonged"},
      {"measurement": "release of inflammatory cytokine IL-1β", "setting": "[2]", "value": "significantly reduces"},
      {"measurement": "antioxidant capacity", "setting": "[3]", "value": "very weak"},
      {"measurement": "number of tumor nodules in lungs", "setting": "[4]; 200 mg/kg oral from day 12, 12 Gy γ-ray at day 14, day 28, compared to 4T1 group and 4T1+IR group", "value": "decreased"},
      {"measurement": "lung injury and fibrosis (pathological analysis)", "setting": "[4]; 200 mg/kg oral, 12 Gy γ-ray, day 28, 4T1+IR+Nar vs 4T1+IR", "value": "markedly alleviated"},
      {"measurement": "serum level of IFN-γ", "setting": "[4]; [5]", "value": "significantly changed"},
      {"measurement": "serum level of IL-1β", "setting": "[4]; [5]", "value": "significantly changed"},
      {"measurement": "serum level of IL-6", "setting": "[4]; [5]", "value": "significantly changed"}
    ]}
  ]
}
